In patent US4728649A, “3-oxo-piperazin-1-yl-ergolines exhibiting antidopaminergic activity” (Farmitalia Carlo Erba, priority 1985, dated 1988):

How the values were obtained:
[1] = tested on: central apomorphine-induced climbing; test: Antagonism to central apomorphine-induced climbing (stereotypes) in mice; type: in vivo; details: Mus musculus, po; male mice; 60 minutes before 1 mg/kg s.c. apomorphine HCl; evaluated 10 minutes after apomorphine
Source text: (§1) Profiles of the central sedative pharmacological activity were obtained by Irwin's observational assessment of mouse behavior (Irwin, S.--Psychopharmacologia, Berl., 13, 222, 1968), which also gives an indication of the orientative acute toxicity after 7 days observation, and by antagonism to the central apomorphine-induced stereotypes (climbing) in mice.
For the antagonism to central apomorphine-induced climbing (Protais, P. et al.--Psychopharmacology, 50, 1, 1976), the compounds were orally administered to male mice, in a dose range between 0.25 and 10 mg/kg, 60 minutes before the subcutaneous injection of 1 mg/kg of apomorphine HCl. The antagonism to apormorphine-induced climbing behavior was evaluated 10 minutes after apomorphine administration.

[2] = Orientative acute toxicity (Irwin's observational assessment of mouse behavior, 7 days observation); details: in vivo, po, after 7 days observation
Source text: as §1

CN1C[C@H](CN2CC(=O)NC(=O)C2)C=C2c3cccc4[nH]cc(c34)C[C@H]21 [Example 5, 6-Methyl-9,10-didehydro-8β-(3,5-dioxo-piperazin-1-ylmethyl)-ergoline]
ED50 [1]: 0.5 mg/kg | LD50 at 168 h [2]: 200 mg/kg

CN1C[C@H](CN2CC(=O)NC(=O)C2)C[C@@H]2c3cccc4c3c(cn4C)C[C@H]21 [Example 2, 1,6-Dimethyl-8β-(3,5-dioxo-piperazin-1-ylmethyl)-ergoline]
ED50 [1]: 0.9 mg/kg | LD50 at 168 h [2]: 300 mg/kg

CN1C(=O)CN(C[C@@H]2C[C@@H]3c4cccc5[nH]cc(c45)C[C@H]3N(C)C2)CC1=O [Example 3, 6-Methyl-8β-(3,5-dioxo-4-methyl-piperazin-1-ylmethyl)-ergoline]
ED50 [1]: 2.2 mg/kg | LD50 at 168 h [2]: 300 mg/kg

CN1C[C@H](CN2CC(=O)NC(=O)C2)C[C@@H]2c3cccc4[nH]cc(c34)C[C@H]21 [Example 1, 6-Methyl-8β-(3,5-dioxo-piperazin-1-ylmethyl)-ergoline]
ED50 [1]: 4.4 mg/kg | LD50 at 168 h [2]: 600 mg/kg
